In US6576622B1, “Drug combination for the treatment of viral diseases” (University of Medicine & Dentistry of New Jersey, priority 1995, dated 2003):

Assays:
HIV-gpt [1] = test: HIV-gpt colony formation after infection of HeLa-T4 cells in the presence of antiretroviral agents; format: cell-based; settings: HeLa-T4; plasmid derived HIV-gpt (COS cells); AZT 10 μM, DDI 50 μM, D4T 50 μM; no drug control 8800
HIV-LacZ = format: cell-based; settings: d4T at 50 μM
HIV-gpt [2] = test: HIV-gpt colony formation in the presence of D4T; format: cell-based; settings: for Frequency: with D4T
Procedure: (§1) Production of recombinant HIV-gpt has been described elsewhere (26). The amphotropic cell line PA317 was transfected with the recombinant murine retrovirus pLXSN (36) and was used as the source of the recombinant MLV-neo virus. Stock preparations of HIV-1IIIB were harvested from H9 cells by the “shake off method” (13). Stock virus infectivity was determined by end-point dilution in MT-2 cells (32). Virus induced cytopathic effect was scored 7 days post-infection and the TCID50 was calculated with the Reed and Muench equation (33).
(§2) To confirm this high rate of infection in the absence of genetic drug resistance, we used several other recombinant viruses and host cells. […] A high rate of infection of Jurkat cells in the presence of d4T has also been seen.
(§3) Table 5. HIV-gpt produced in COS cells by transfection with plasmids (plasmid derived) is compared with HIV-gpt produced by, rescue from H9/HIV-gpt cell line after infection with HIV-IIIB and cells infected with MLV-neo.

MLV-neo = MLV-neo colony formation in the presence of antiviral agents; format: cell-based, Moloney Leukemia virus
Procedure: as §1, §2, §3
(§4) Table 6. Colony formation and persistent resistance after Hela-T4 cell infection with MLV-neo virus in the presence and absence of various antiviral agents.

[3] = test system: recombinant HIV, recombinant MLV, or replication-competent HIV; format: cell-based
Text: The presence of a selectable marker gene in the recombinant HIV allowed the isolation of cells infected by the recombinant viruses in the presence of d4T. These cells were characterized by infection with both additional recombinant viruses and by replication-competent viruses.
as §4

MLV-LacZ = test: Infection of Jurkat JE6.1 cell clones with MLV-LacZ in the presence of D4T; format: cell-based
Text: Table 7. Infection of Jurkat JE6.1 cell clones sensitive and resistant to D4T.
** Bulk=bulk culture; R=resistant clone; C=control clone; JE6.1=parental cell line.

HIV-IIIB = HIV-IIIB infection of JE6.1 cells refractory to d4T, D4T IC50 with FUdr (RT activity); format: cell-based, HIV-1; settings: Human immunodeficiency virus 1, IIIB, 144 h, concentration of D4T for 50% inhibition of RT activity on day 6, F = uM FUdr
Procedure: Table 8. Jurkat JE6.1 cells refractory to the antiviral activity of d4T (D4T bulk, D4TR1, D4TR3) and control JE6.1 cells were infected with HIV-IIIB in the presence of 0.001 uM d4T, 0.01 uM d4T 0.1 uM d4T, 1 uM d4T, 10 uM d4T, 100 uM d4T and 1000 uM d4T in the presence of 0.005 uM FUdr, 0.01 uM FUdr or 0.25 uM FUdr.

Compound: Cc1cn([C@H]2C=C[C@@H](CO)O2)c(=O)[nH]c1=O [D4T, Stavudine]
- Number of colonies (HIV-gpt [1]): 50
- cross resistance of cell lines “persistently resistant” to AZT to other nucleoside analogs (HIV-LacZ): partial cross resistance
- Frequency (HIV-gpt [2]; HIV-gpt by rescue with HIV): 1.6 × 10^3
- No. of colonies with D4T (HIV-gpt [2]; HIV-gpt by rescue with HIV, without D4T 3.4 × 10^4): 53
- Frequency (HIV-gpt [2]; plasmid derived HIV-gpt): 1.7 × 10^3
- No. of colonies with D4T (HIV-gpt [2]; plasmid derived HIV-gpt, without D4T 4.7 × 10^4): 80
- No. of colonies (MLV-neo; Hela-T4, AZT 10 uM, DDI 50 uM, DDC 10 uM, D4T 50 uM, control 9050): 63
- No. of colonies with D4T (MLV-neo; without D4T 9.2 × 10^4): 101
- cells infected with HIV in the presence of d4T that are readily re-infected in the presence of high concentrations of d4T [3]: ~50%
- No. of persistently resistant colonies ([3]; Hela-T4, MLV-neo, AZT 10 uM, DDI 50 uM, DDC 10 uM, D4T 50 uM, resistant/tested): 23/63
- isolated cells repeatedly refractory to the antiviral effects of d4T ([3]; cells infected in the presence of d4T, re-infection at high concentrations of d4T): approximately 37%
- Frequency ([3]; frequency of persistently resistant colonies, Hela-T4, MLV-neo): 2.5 × 10^−3
- % cells infected with MLV-LacZ in the presence of D4T relative to absence of D4T (MLV-LacZ; JE6.1 parental cell line, 50 uM D4T): − ((−), 20%)
- % cells infected with MLV-LacZ in the presence of D4T relative to absence of D4T (MLV-LacZ; JE6.1 parental cell line, 100 uM D4T): − ((−), 20%)
- % cells infected with MLV-LacZ in the presence of D4T relative to absence of D4T (MLV-LacZ; Jurkat Bulk (bulk culture), 50 uM D4T): ++ ((++) 41-60%)
- % cells infected with MLV-LacZ in the presence of D4T relative to absence of D4T (MLV-LacZ; Jurkat Bulk (bulk culture), 100 uM D4T): + ((+) 21-40%)
- % cells infected with MLV-LacZ in the presence of D4T relative to absence of D4T (MLV-LacZ; Jurkat control clone C2, 50 uM D4T): − ((−), 20%)
- % cells infected with MLV-LacZ in the presence of D4T relative to absence of D4T (MLV-LacZ; Jurkat control clone C2, 100 uM D4T): − ((−), 20%)
- % cells infected with MLV-LacZ in the presence of D4T relative to absence of D4T (MLV-LacZ; Jurkat control clone C23, 50 uM D4T): − ((−), 20%)
- % cells infected with MLV-LacZ in the presence of D4T relative to absence of D4T (MLV-LacZ; Jurkat control clone C23, 100 uM D4T): − ((−), 20%)
- % cells infected with MLV-LacZ in the presence of D4T relative to absence of D4T (MLV-LacZ; Jurkat control clone C26, 50 uM D4T): − ((−), 20%)
- % cells infected with MLV-LacZ in the presence of D4T relative to absence of D4T (MLV-LacZ; Jurkat control clone C26, 100 uM D4T): − ((−), 20%)
- % cells infected with MLV-LacZ in the presence of D4T relative to absence of D4T (MLV-LacZ; Jurkat control clone C27, 50 uM D4T): − ((−), 20%)
- % cells infected with MLV-LacZ in the presence of D4T relative to absence of D4T (MLV-LacZ; Jurkat control clone C27, 100 uM D4T): − ((−), 20%)
- % cells infected with MLV-LacZ in the presence of D4T relative to absence of D4T (MLV-LacZ; Jurkat resistant clone R1, 50 uM D4T): ++++ ((++++), 81-100%)
- % cells infected with MLV-LacZ in the presence of D4T relative to absence of D4T (MLV-LacZ; Jurkat resistant clone R1, 100 uM D4T): ++++ ((++++), 81-100%)
- % cells infected with MLV-LacZ in the presence of D4T relative to absence of D4T (MLV-LacZ; Jurkat resistant clone R3, 50 uM D4T): +++ ((+++), 61-80%)
- % cells infected with MLV-LacZ in the presence of D4T relative to absence of D4T (MLV-LacZ; Jurkat resistant clone R3, 100 uM D4T): ++ ((++) 41-60%)
- % cells infected with MLV-LacZ in the presence of D4T relative to absence of D4T (MLV-LacZ; Jurkat resistant clone R4, 50 uM D4T): − ((−), 20%)
- % cells infected with MLV-LacZ in the presence of D4T relative to absence of D4T (MLV-LacZ; Jurkat resistant clone R4, 100 uM D4T): − ((−), 20%)
- % cells infected with MLV-LacZ in the presence of D4T relative to absence of D4T (MLV-LacZ; Jurkat resistant clone R7, 50 uM D4T): − ((−), 20%)
- % cells infected with MLV-LacZ in the presence of D4T relative to absence of D4T (MLV-LacZ; Jurkat resistant clone R7, 100 uM D4T): − ((−), 20%)
- % cells infected with MLV-LacZ in the presence of D4T relative to absence of D4T (MLV-LacZ; Jurkat resistant clone R12, 50 uM D4T): ++++ ((++++), 81-100%)
- % cells infected with MLV-LacZ in the presence of D4T relative to absence of D4T (MLV-LacZ; Jurkat resistant clone R12, 100 uM D4T): ++++ ((++++), 81-100%)
- % cells infected with MLV-LacZ in the presence of D4T relative to absence of D4T (MLV-LacZ; Jurkat resistant clone R14, 50 uM D4T): + ((+) 21-40%)
- % cells infected with MLV-LacZ in the presence of D4T relative to absence of D4T (MLV-LacZ; Jurkat resistant clone R14, 100 uM D4T): − ((−), 20%)
- % cells infected with MLV-LacZ in the presence of D4T relative to absence of D4T (MLV-LacZ; Jurkat resistant clone R15, 50 uM D4T): ++++ ((++++), 81-100%)
- % cells infected with MLV-LacZ in the presence of D4T relative to absence of D4T (MLV-LacZ; Jurkat resistant clone R15, 100 uM D4T): ++++ ((++++), 81-100%)
- % cells infected with MLV-LacZ in the presence of D4T relative to absence of D4T (MLV-LacZ; Jurkat resistant clone R16, 50 uM D4T): + ((+) 21-40%)
- % cells infected with MLV-LacZ in the presence of D4T relative to absence of D4T (MLV-LacZ; Jurkat resistant clone R16, 100 uM D4T): − ((−), 20%)
- % cells infected with MLV-LacZ in the presence of D4T relative to absence of D4T (MLV-LacZ; Jurkat resistant clone R19, 50 uM D4T): − ((−), 20%)
- % cells infected with MLV-LacZ in the presence of D4T relative to absence of D4T (MLV-LacZ; Jurkat resistant clone R19, 100 uM D4T): − ((−), 20%)
- % cells infected with MLV-LacZ in the presence of D4T relative to absence of D4T (MLV-LacZ; Jurkat resistant clone R20, 50 uM D4T): ++++ ((++++), 81-100%)
- % cells infected with MLV-LacZ in the presence of D4T relative to absence of D4T (MLV-LacZ; Jurkat resistant clone R20, 100 uM D4T): +++ ((+++), 61-80%)
- % cells infected with MLV-LacZ in the presence of D4T relative to absence of D4T (MLV-LacZ; Jurkat resistant clone R21, 50 uM D4T): ++++ ((++++), 81-100%)
- % cells infected with MLV-LacZ in the presence of D4T relative to absence of D4T (MLV-LacZ; Jurkat resistant clone R21, 100 uM D4T): ++++ ((++++), 81-100%)
- % cells infected with MLV-LacZ in the presence of D4T relative to absence of D4T (MLV-LacZ; Jurkat resistant clone R22, 50 uM D4T): ++ ((++) 41-60%)
- % cells infected with MLV-LacZ in the presence of D4T relative to absence of D4T (MLV-LacZ; Jurkat resistant clone R22, 100 uM D4T): + ((+) 21-40%)
- % cells infected with MLV-LacZ in the presence of D4T relative to absence of D4T (MLV-LacZ; Jurkat resistant clone R26, 50 uM D4T): + ((+) 21-40%)
- % cells infected with MLV-LacZ in the presence of D4T relative to absence of D4T (MLV-LacZ; Jurkat resistant clone R26, 100 uM D4T): − ((−), 20%)
- % cells infected with MLV-LacZ in the presence of D4T relative to absence of D4T (MLV-LacZ; Jurkat resistant clone R29, 50 uM D4T): − ((−), 20%)
- % cells infected with MLV-LacZ in the presence of D4T relative to absence of D4T (MLV-LacZ; Jurkat resistant clone R29, 100 uM D4T): − ((−), 20%)
- % cells infected with MLV-LacZ in the presence of D4T relative to absence of D4T (MLV-LacZ; Jurkat resistant clone R33, 50 uM D4T): +++ ((+++), 61-80%)
- % cells infected with MLV-LacZ in the presence of D4T relative to absence of D4T (MLV-LacZ; Jurkat resistant clone R33, 100 uM D4T): + ((+) 21-40%)
- % cells infected with MLV-LacZ in the presence of D4T relative to absence of D4T (MLV-LacZ; Jurkat resistant clone R36, 50 uM D4T): ++++ ((++++), 81-100%)
- % cells infected with MLV-LacZ in the presence of D4T relative to absence of D4T (MLV-LacZ; Jurkat resistant clone R36, 100 uM D4T): ++ ((++) 41-60%)
- IC50 (HIV-IIIB; D4TBulk cells (refractory to d4T)): 3 µM
- IC50 (HIV-IIIB; D4TR1 cells (refractory to d4T)): 74 µM
- IC50 (HIV-IIIB; D4TR3 cells (refractory to d4T)): 2 µM
- IC50 (HIV-IIIB; JE6.1 control cells): 0.02 µM
